Results as given in PMC6695355, “Alanine Scanning Studies of the Antimicrobial Peptide Aurein 1.2” (Probiotics and Antimicrobial Proteins, 2018).
≈ marks a conversion by molar mass, not a printed value. Read-outs that look alike come from different tables or passages of the source. Where a SMILES comes first, the peptide text is derived from it.

Key:
[1] = tested on: S. aureus ATCC 25923 biofilm; format: cell-based, Staphylococcus aureus; details: ATCC 25923, 24 h
Protocol: (§1) The minimum inhibitory concentrations (MICs) of test compounds were assessed by broth microdilution method on 96-well plates, according to the guidelines of Clinical and Laboratory Standards Institute (CLSI). For this purpose, reference strains of bacteria: S. aureus ATCC 25923, E. faecalis PCM 2673, E. coli ATCC 25922, and P. aeruginosa ATCC 9027; and fungus: C. albicans ATCC 10231 were used (The Polish Collection of Microorganism, Polish Academy of Sciences, Wrocław, Poland). Bacteria at initial inoculums of 0.5 × 10^5 CFU/mL in Mueller Hinton Broth (MHB), and fungi at initial inoculums of 2 × 10^3 CFU/mL in RPMI-1640, were exposed to the compounds over the concentration range of 1–512 μg/mL. The polystyrene plates were incubated at 37 °C for 18 h with bacteria and for 24 h with C. albicans. The MIC was taken as the lowest concentration at which a noticeable growth of microorganisms was inhibited. Minimum biofilm eradication concentrations (MBECs) were determined using a previously described protocol. For this purpose, 96-well polystyrene flat-bottom plates and a resazurin (7-hydroxy-3H-phenoxazin-3-one 10-oxide) were used. In this assay, a specific feature of resazurin is utilized, which upon the contact with living cells is metabolized and reduced from the basic blue form to pink resorufin. Briefly, 24-h cultures of microorganisms were diluted 1,000-fold and 100 μL of that suspension was added into the test plates. After 24 h of incubation at 37 °C, the wells of the plates were rinsed three times with phosphate buffer saline (PBS) to remove non-adherent cells. Subsequently, 100 μL of test compounds in concentration range (diluted in appropriate media) were added to each well. After 24 h of incubation at 37 °C, 20 μL of the resazurin (4 mg/mL) was added. The MBEC was read after 1 h. Additionally, anti-adhesive properties of the compounds were also analyzed. The assay was conducted on 96-well polystyrene flat-bottom plates. The preparation of inoculums was followed by a 500-fold dilution of 24-h cultures of microorganisms. Briefly, to evaluate the effect of the peptides in preventing biofilm formation, 50 μL of compounds in concentration range, diluted in appropriate medium, were prepared. Subsequently, the 50 μL of the bacterial/fungal inoculums were added to reach the same microbial density as that in MBEC assay. After 24 h of incubation at 37 °C, the wells were rinsed three times with PBS and the fresh media with resazurin (0.6 mg/mL) were added. Then, after 1 h of incubation, the minimum biofilm inhibitory concentrations (MBIC) were read. MBECs as well as MBICs were determined as the lowest concentration at which the reduction of resazurin was lower or equal (10% ± 0.5%) as compared to positive (100%) and negative (0%) controls. All experiments were performed in triplicate.

[2] = tested on: S. aureus ATCC 25923 biofilm formation; format: cell-based, Staphylococcus aureus; details: ATCC 25923, 24 h
Protocol: as §1

S. aureus ATCC 25923 = format: cell-based, Staphylococcus aureus; details: ATCC 25923, 18 h
Protocol: as §1

[3] = tested on: E. faecalis PCM 2673 biofilm formation; format: cell-based, Enterococcus faecalis; details: 24 h
Protocol: as §1

E. faecalis PCM 2673 = format: cell-based, Enterococcus faecalis; details: PCM 2673, 18 h
Protocol: as §1

[4] = tested on: E. faecalis PCM 2673 biofilm; format: cell-based, Enterococcus faecalis; details: 24 h
Protocol: as §1

[5] = tested on: P. aeruginosa ATCC 9027 biofilm formation; format: cell-based, Pseudomonas aeruginosa; details: ATCC 9027, 24 h
Protocol: as §1

[6] = tested on: P. aeruginosa ATCC 9027 biofilm; format: cell-based, Pseudomonas aeruginosa; details: ATCC 9027, 24 h
Protocol: as §1

P. aeruginosa ATCC 9027 = format: cell-based, Pseudomonas aeruginosa; details: ATCC 9027, 18 h
Protocol: as §1

in vitro = in vitro ADME; details: bovine, serum
Protocol: To assess serum stability, the peptides (0.5 mg) were dissolved in 4 mL of 25% (v/v) fetal bovine serum (FBS) in PBS and incubated at 37 °C. The aliquots of 100 μL of the test samples were transferred to 96-well polystyrene plates in triplicate for each time point. Samples were quenched at zero time (t0) and after 6 h of incubation at 37 °C by addition of 100 μL of ice-cold acetonitrile and stored at 4 °C for 10 min. Afterwards, the samples were centrifuged at 13,000×g for 20 min at 4 °C and diluted 1:1 with HPLC-grade water. All samples were analyzed using the Waters Alliance e2695 system with Waters Acquity QDa Detector (software–Empower®3). Analyses were conducted on an Agilent Zorbax SB-C18 RP-18 column (4.6 × 50 mm, 1.8-μm particle size, 80-Å pore size) using a linear 30–60% acetonitrile (B) gradient in deionized water (A) over 6 min at 25.0 ± 0.1 °C, at a flow rate of 0.5 mL/min and MS working in selected ion recording (SIR) mode (A—0.1% aqueous formic acid (FA) and B—0.1% FA in acetonitrile). The percentage of peptide remaining intact was calculated from peak areas of samples at t0 and after 6 h of incubation in serum (the % of remaining peptide = peak area after 6 h/peak area at t0). The mass-to-charge ratios selected for SIR mode were based on values obtained from full spectrum analysis of each peptide and are presented in Table 1.

[7] = tested on: human red blood cells (RBCs); experiment: Hemolysis assay; format: cell-based
Protocol: The hemolytic activity of the peptides was determined using fresh human red blood cells (RBCs) collected from a healthy human donor according to the procedure described in the literature. Fresh RBCs with EDTA as anticoagulant were rinsed three times with a PBS by centrifugation at 800×g for 10 min and resuspension in PBS. Serial dilution of the peptides in PBS (1–256 μg/mL) on 96-well polystyrene plates was prepared and the stock solution of RBCs was added up to a final volume of 100 μL with a 4% concentration of erythrocytes (v/v). The control wells for 0 and 100% hemolysis contained of RBCs suspended in PBS and 1% of Triton-X 100, respectively. Subsequently, the plates were incubated for 1 h at 37 °C and then centrifuged at 800×g for 10 min at 4 °C (Sorvall ST 16R Centrifuge, Thermo Scientific). After centrifugation, the supernatant was carefully […] to new microtiter plates and the release of hemoglobin was measured at 540 nm (Multiskan™ GO Microplate Spectrophotometer, Thermo Scientific). All experiments were conducted in triplicate.

E. coli ATCC 25922 = format: cell-based, Escherichia coli; details: ATCC 25922, 18 h
Protocol: as §1

[8] = tested on: E. coli ATCC 25922 biofilm; format: cell-based, Escherichia coli; details: ATCC 25922, 24 h
Protocol: as §1

[9] = tested on: E. coli ATCC 25922 biofilm formation; format: cell-based, Escherichia coli; details: ATCC 25922, 24 h
Protocol: as §1

[10] = tested on: C. albicans ATCC 10231 biofilm formation; format: cell-based, Candida albicans; details: ATCC 10231, 24 h
Protocol: as §1

C. albicans ATCC 10231 = format: cell-based, Candida albicans; details: ATCC 10231, 24 h
Protocol: as §1

[11] = tested on: C. albicans ATCC 10231 biofilm; format: cell-based, Candida albicans; details: ATCC 10231, 24 h
Protocol: as §1

MIC, S. aureus ATCC 25923 (S. aureus ATCC 25923) [µg/mL] | MIC, E. faecalis PCM 2673 (E. faecalis PCM 2673) [µg/mL] | MIC, P. aeruginosa ATCC 9027 (P. aeruginosa ATCC 9027) [µg/mL] | remaining at 6 h, 0.125 mg/mL (in vitro) [%] | MIC, E. coli ATCC 25922 (E. coli ATCC 25922) [µg/mL] | Compound | MBEC, S. aureus ATCC 25923 [1] [µg/mL] | MBIC, S. aureus ATCC 25923 [2] [µg/mL] | MBIC, E. faecalis PCM 2673 [3] [µg/mL] | MBEC, E. faecalis PCM 2673 [4] [µg/mL] | MBIC, P. aeruginosa ATCC 9027 [5] [µg/mL] | MBEC, P. aeruginosa ATCC 9027 [6] [µg/mL] | Percentage of hemolysis at 1 μg/mL ([7]; red cells of human, 1 h) [%] | Percentage of hemolysis at 4 μg/mL ([7]; red cells of human, 1 h) [%] | Percentage of hemolysis at 8 μg/mL ([7]; red cells of human, 1 h) [%] | Percentage of hemolysis at 16 μg/mL ([7]; red cells of human, 1 h) [%] | Percentage of hemolysis at 32 μg/mL ([7]; red cells of human, 1 h) [%] | Percentage of hemolysis at 64 μg/mL ([7]; red cells of human, 1 h) [%] | Percentage of hemolysis at 128 μg/mL ([7]; red cells of human, 1 h) [%] | Percentage of hemolysis at 256 μg/mL ([7]; red cells of human, 1 h) [%] | MBEC, E. coli ATCC 25922 [8] [µg/mL] | other results
16 (≈ 11.1 µM) | 32 (≈ 22.3 µM) | 64 (≈ 44.6 µM) | 44 | 8 (≈ 5.57 µM) | CC[C@H](C)[C@H](NC(=O)[C@H](C)NC(=O)[C@H](Cc1ccccc1)NC(=O)[C@H](CC(C)C)NC(=O)CN)C(=O)N[C@H](C(=O)N[C@@H](CCCCN)C(=O)N[C@@H](CCCCN)C(=O)N[C@H](C(=O)N[C@@H](C)C(=O)N[C@@H](CCC(=O)O)C(=O)N[C@@H](CO)C(=O)N[C@@H](Cc1ccccc1)C(N)=O)[C@@H](C)CC)[C@@H](C)CC [Peptide D4A] (H-GLFAIIKKIAESF-NH2) | 16 | 16 | 32 | 128 | 64 | 512 | 0.2 | 0.3 | 0.3 | 0.3 | 1.5 | 6.6 | 23.2 | 61.0 | 32 | Percentage of hemolysis at 2 μg/mL ([7]; red cells of human, 1 h, 2): 0.3%; MBIC, E. coli ATCC 25922 [9]: 8 µg/mL; MBIC, C. albicans ATCC 10231 [10]: 2 µg/mL; MIC, C. albicans ATCC 10231 (C. albicans ATCC 10231): 64 µg/mL (≈ 44.6 µM); MBEC, C. albicans ATCC 10231 [11]: 512 µg/mL
32 (≈ 22.5 µM) | 32 (≈ 22.5 µM) | 64 (≈ 45 µM) | 17 | 16 (≈ 11.3 µM) | CC[C@H](C)[C@H](NC(=O)[C@H](CCCCN)NC(=O)[C@H](CCCCN)NC(=O)[C@@H](NC(=O)[C@@H](NC(=O)[C@H](CC(=O)O)NC(=O)[C@H](Cc1ccccc1)NC(=O)[C@H](CC(C)C)NC(=O)CN)[C@@H](C)CC)[C@@H](C)CC)C(=O)N[C@@H](C)C(=O)N[C@@H](C)C(=O)N[C@@H](CO)C(=O)N[C@@H](Cc1ccccc1)C(N)=O [Peptide E11A] (H-GLFDIIKKIAASF-NH2) | 16 | 32 | 32 | > 512 | 64 | 512 | 0.1 | 0.2 | 0.1 | 0.1 | 0.4 | 2.9 | 11.9 | 40.2 | 64 | Percentage of hemolysis at 2 μg/mL [7]: 17.4%; MBIC, E. coli ATCC 25922 [9]: 16 µg/mL; MBIC, C. albicans ATCC 10231 [10]: 4 µg/mL; MIC, C. albicans ATCC 10231 (C. albicans ATCC 10231): 32 µg/mL (≈ 22.5 µM); MBEC, C. albicans ATCC 10231 [11]: > 512 µg/mL
512 (≈ 365 µM) | 256 (≈ 182 µM) | 512 (≈ 365 µM) | 38 | 128 (≈ 91.2 µM) | CC[C@H](C)[C@H](NC(=O)[C@H](CCCCN)NC(=O)[C@H](CCCCN)NC(=O)[C@@H](NC(=O)[C@@H](NC(=O)[C@H](CC(=O)O)NC(=O)[C@H](C)NC(=O)[C@H](CC(C)C)NC(=O)CN)[C@@H](C)CC)[C@@H](C)CC)C(=O)N[C@@H](C)C(=O)N[C@@H](CCC(=O)O)C(=O)N[C@@H](CO)C(=O)N[C@@H](Cc1ccccc1)C(N)=O [Peptide F3A] (H-GLADIIKKIAESF-NH2) | > 512 | >512 | 256 | > 512 | 512 | > 512 | 0.1 | 0.0 | 0.0 | 0.0 | 0.0 | 0.0 | 0.0 | 0.3 | 256 | Percentage of hemolysis at 2 μg/mL ([7]; red cells of human, 1 h, 2): 0.1%; MBIC, E. coli ATCC 25922 [9]: 256 µg/mL; MBIC, C. albicans ATCC 10231 [10]: 4 µg/mL; MIC, C. albicans ATCC 10231 (C. albicans ATCC 10231): 128 µg/mL (≈ 91.2 µM); MBEC, C. albicans ATCC 10231 [11]: > 512 µg/mL
